Test results as given in paper PMC11506774 (Biomolecules, 2024).
≈ marks a conversion by molar mass, not a printed value.

Columns and labels:
RD cells = experiment: Cytotoxicity assay (CCK-8); format: cell-based; conditions: 24 h, 2-fold dilutions from 1 mg/mL, CCK-8, absorbance 450 nm, mean ± SD, at least two independent experiments
Protocol: RD cells at a density of 4 × 10^4/100 µL/well were seeded in 96-well plates 24 h prior to the cytotoxicity assay. The peptide P25 and its derivatives were reconstituted in DMSO to a concentration of 25 mg/mL and then diluted to 1 mg/mL in DMEM with 100 mM HEPES, from which 2-fold serial dilutions of the peptides were produced, starting with the same medium. DMSO diluted in the same medium served as the control. Fifty microliters of diluted peptides and the control medium were added to the cells and cultured for 24 h. After cultivation, 5 µL of the enhanced CCK-8 reagent (Beyotime, C0043, Shanghai, China) were added directly to each well of the cell culture and cultured for an additional hour. Absorbance at 450 nm was detected using a TECAN Infinite 200 PRO instrument. The cell viability was normalized to the control, and the concentration at which a peptide inhibited 50% of the cell viability (CC50) was calculated using GraphPad Prism 9.5.1 (GraphPad software, San Diego, CA, USA).

EV-D68/BCH895A = conditions: co-treatment, RD cells, 100 TCID50/50 µL, 24 h, crystal violet; mean ± SD, at least two independent experiments; >125 = protection less than 50% at 125 µg/mL; NO = no inhibition observed
Poliovirus 3/nOPV3 = conditions: 24 h
EV-A71/SZK2021 = conditions: co-treatment, RD cells, 100 TCID50/50 µL, 24 h, crystal violet; mean ± SD, at least two independent experiments; NO = no inhibition observed
Echo 30/WZ16 = conditions: co-treatment, RD cells, 100 TCID50/50 µL, 24 h, crystal violet; mean ± SD, at least two independent experiments; >125 = protection less than 50% at 125 µg/mL; NO = no inhibition observed

CC[C@H](C)[C@H](NC(=O)[C@H](Cc1c[nH]cn1)NC(=O)[C@H](CCCCN)NC(=O)[C@@H]1CCCN1C(=O)[C@H](CCCCN)NC(=O)[C@H](CCSC)NC(=O)[C@H](Cc1ccc(O)cc1)NC(=O)[C@@H](NC(=O)[C@H](CCCNC(=N)N)NC(=O)[C@@H](NC(=O)[C@@H](NC(=O)[C@@H](NC(=O)[C@@H](NC(=O)[C@H](Cc1ccccc1)NC(=O)CN)[C@@H](C)O)C(C)C)[C@@H](C)O)C(C)C)C(C)C)C(=O)N[C@@H](CCCCN)C(=O)N[C@@H](C)C(=O)N[C@@H](Cc1c[nH]c2ccccc12)C(=O)N[C@@H](C)C(=O)O [Peptide P25]
CC50 (RD cells): 256.43 ± 7.15 µg/mL (≈ 115 µM)
IC50 of P25 at 6 h of pre-treatment (EV-A71/FY0805; 6 h): 3.9 µg/mL
IC50 (µg/mL) EV-A71 /FY0805 (EV-A71/FY0805; 24 h): 32.35 ± 7.23 µg/mL (≈ 14.5 µM)
IC50 (µg/mL) EV-D68 /BCH895A (EV-D68/BCH895A): 57.56 ± 5.81 µg/mL
IC50 (µg/mL) Poliovirus 3 /nOPV3 (Poliovirus 3/nOPV3): >125 µg/mL
IC50 (µg/mL) EV-A71 /SZK2021 (EV-A71/SZK2021): 41.32 ± 8.46 µg/mL
IC50 (µg/mL) Echo 30 /WZ16 (Echo 30/WZ16): >125 µg/mL
